Patent publication EP4603105A1, “PHARMACEUTICAL COMPOSITION CONTAINING CYCLIC COMPOUND HAVING SELECTIVE KRAS INHIBITORY EFFECT AGAINST HRAS AND NRAS” (CHUGAI SEIYAKU KABUSHIKI KAISHA, priority 2022, dated 2024)

Tests used:
[1] = test system: human lung cancer strain NCI-H441; assay: NCI-H441 cell proliferation inhibitory activity (CellTiter-Glo, 4 days); assay type: cell-based; details: NCI-H441 cells, 4 days, read-out: NCl-H441 IC50
In short: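 Signal came from […] measured per well once the reagent was added. Beforehand, cells were cultured at 37°C and 5% carbon dioxide on a compound series serially diluted in dimethyl sulfoxide.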

[2] = target: HRAS wild-type protein (Homo sapiens, UniProt P01112); assay: Binding to HRAS by surface plasmon resonance (SPR), KD and KD ratio to KRAS; details: ratio of KD for HRAS wild-type protein to KD for KRAS
In short: (§1)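 Measured at 30°C: SPR with GDP-loaded, E. coli-expressed biotin-Avi RAS captured (~100–300 RU), ascending 75 s compound injections, HBS pH 7.4 with GDP, MgCl2, 4% DMSO. KD from 1:1 fit.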

[3] = target: GDP-bound KRAS wild-type protein (Homo sapiens, UniProt P01116); assay: Binding to KRAS by surface plasmon resonance (SPR), dissociation constant KD; details: Single Cycle Kinetics
In short: as §1

[4] = target: GDP-bound NRAS wild-type protein (Homo sapiens, UniProt P01111); assay: Binding to NRAS by surface plasmon resonance (SPR), KD and KD ratio to KRAS; details: ratio of KD for GDP-bound NRAS wild-type protein to KD for KRAS
In short: as §1

HRAS wild-type protein, sequence (P01112 whole entry): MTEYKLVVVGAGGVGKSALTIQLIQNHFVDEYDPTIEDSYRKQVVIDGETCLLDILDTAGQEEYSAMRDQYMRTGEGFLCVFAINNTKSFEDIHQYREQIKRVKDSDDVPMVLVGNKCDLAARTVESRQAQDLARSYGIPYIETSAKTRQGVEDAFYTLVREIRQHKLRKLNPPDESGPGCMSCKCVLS
GDP-bound KRAS wild-type protein, sequence (P01116 1-188 isoform P01116-2): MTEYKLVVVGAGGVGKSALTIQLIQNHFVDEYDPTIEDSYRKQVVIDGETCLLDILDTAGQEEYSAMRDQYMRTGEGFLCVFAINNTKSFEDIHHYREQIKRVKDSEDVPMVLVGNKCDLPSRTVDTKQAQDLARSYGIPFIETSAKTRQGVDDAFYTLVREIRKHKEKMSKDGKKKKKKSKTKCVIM
GDP-bound NRAS wild-type protein, sequence (P01111 whole entry): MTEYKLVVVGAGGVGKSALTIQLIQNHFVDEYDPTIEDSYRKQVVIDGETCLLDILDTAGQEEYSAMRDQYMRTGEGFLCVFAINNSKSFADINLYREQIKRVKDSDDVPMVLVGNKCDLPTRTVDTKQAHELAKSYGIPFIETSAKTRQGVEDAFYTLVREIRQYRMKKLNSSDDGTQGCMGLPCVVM

| SMILES | IC50 [1] [nM] | HRAS /KRAS [2] | Kd [3] [nM] | NRAS /KRAS [4] |
| --- | --- | --- | --- | --- |
| CCC[C@H]1C(=O)N[C@@H]([C@@H](C)CC)C(=O)N2CCC[C@H]2C(=O)N(C)[C@H]2C/C=C\CCN(C2=O)[C@@H](Cc2ccc(C)cc2)C(=O)N(C)CC(=O)N[C@@H](CCc2cc(F)c(C(F)(F)F)c(F)c2)C(=O)N2C[C@H](OCC)C[C@H]2C(=O)NC2(CCCC2)C(=O)N(C)[C@@H](C2CCCC2)C(=O)N(C)[C@H](C(=O)N(C)C)CC(=O)N1C [PP3480] | 12.9 | A (a compound having 10 or more and less than 20 is denoted as A) | 0.49 | A (a compound having 10 or more and less than 20 is denoted as A) |
| CCO[C@@H]1C[C@H]2C(=O)NC3(CCCC3)C(=O)N(C)[C@@H](C3CCCC3)C(=O)N(C)[C@H](C(=O)N(C)C)CC(=O)N(C)[C@@H]([C@@H](C)OC)C(=O)N[C@@H]([C@@H](C)CC)C(=O)N(C3CC3)CC(=O)N(C)[C@H]3C/C=C\CCN(C3=O)[C@@H](Cc3ccc(C)cc3)C(=O)N(C)CC(=O)N[C@@H](CCc3cc(F)c(C(F)(F)F)c(F)c3)C(=O)N2C1 [PP3482] | 38.6 | A (a compound having 10 or more and less than 20 is denoted as A) | 0.6 | A (a compound having 10 or more and less than 20 is denoted as A) |
| CCO[C@@H]1C[C@H]2C(=O)NC3(CCCC3)C(=O)N(C)[C@@H](C3CCCC3)C(=O)N(C)[C@H](C(=O)N(C)C)CC(=O)N(C)[C@@H]([C@@H](C)OC)C(=O)N[C@@H]([C@@H](C)CC)C(=O)N3CCC[C@H]3C(=O)N(C)[C@H]3C/C=C\CCN(C3=O)[C@@H](Cc3ccc(C)cc3)C(=O)N(C)CC(=O)N[C@@H](CCc3cc(F)c(C(F)(F)F)c(F)c3)C(=O)N2C1 [PP3483] | 55.8 | A (a compound having 10 or more and less than 20 is denoted as A) | 0.88 | A (a compound having 10 or more and less than 20 is denoted as A) |
| C#CCN1CC(=O)N(C)[C@H]2C/C=C\CCN(C2=O)[C@@H](Cc2ccc(C(F)F)cc2)C(=O)N(C)CC(=O)N[C@@H](CCc2cc(F)c(C(F)(F)F)c(F)c2)C(=O)N2C[C@H](OC(C)C)C[C@H]2C(=O)N(C)C2(CCC2)C(=O)N(C)[C@@H](C(CC)CC)C(=O)N(C)[C@H](C(=O)N(C)C)CC(=O)N(C)[C@@H](COCCC)C(=O)N[C@@H]([C@@H](C)OC)C1=O [PP3485] | 12 | A (a compound having 10 or more and less than 20 is denoted as A) | 0.75 | A (a compound having 10 or more and less than 20 is denoted as A) |
| C=CCN1CC(=O)N(C)[C@H]2C/C=C\CCN(C2=O)[C@@H](Cc2ccc(C(F)F)cc2)C(=O)N(C)CC(=O)N[C@@H](CCc2cc(F)c(C(F)(F)F)c(F)c2)C(=O)N2C[C@H](OC(C)C)C[C@H]2C(=O)N(C)C2(CCC2)C(=O)N(C)[C@@H](C(CC)CC)C(=O)N(C)[C@H](C(=O)N(C)C)CC(=O)N(C)[C@@H](COCCC)C(=O)N[C@@H]([C@@H](C)OCCC)C1=O [PP3486] | 12.6 | A (a compound having 10 or more and less than 20 is denoted as A) | 0.61 | A (a compound having 10 or more and less than 20 is denoted as A) |
| CCCOC[C@H]1C(=O)N[C@@H](C2CCCC2)C(=O)N(CCC)CC(=O)N(C)[C@H]2C/C=C\CCN(C2=O)[C@@H](Cc2ccc(C(F)F)cc2)C(=O)N(C)CC(=O)N[C@@H](CCc2cc(F)c(C(F)(F)F)c(F)c2)C(=O)N2C[C@H](OC(C)C)C[C@H]2C(=O)N(C)C2(CCC2)C(=O)N(C)[C@@H](C(CC)CC)C(=O)N(C)[C@H](C(=O)N(C)C)CC(=O)N1C [PP3487] | 39.8 | A (a compound having 10 or more and less than 20 is denoted as A) | 0.96 | A (a compound having 10 or more and less than 20 is denoted as A) |
| CCCOC[C@H]1C(=O)N[C@@H]([C@@H](C)OCCC)C(=O)N(CCC)CC(=O)N(C)[C@H]2C/C=C\CCN(C2=O)[C@@H](Cc2ccc(C(F)F)cc2)C(=O)N(C)CC(=O)N[C@@H](CCc2cc(F)c(C(F)(F)F)c(F)c2)C(=O)N2C[C@H](OC(C)C)C[C@H]2C(=O)N(C)C2(CCC2)C(=O)N(C)[C@@H](C(CC)CC)C(=O)N(C)[C@H](C(=O)N(C)C)CC(=O)N1C [PP3488] | 30.7 | A (a compound having 10 or more and less than 20 is denoted as A) | 0.71 | A (a compound having 10 or more and less than 20 is denoted as A) |
| CCCOC[C@H]1C(=O)N[C@@H](C2CCCC2)C(=O)N(CCC)CC(=O)N(C)[C@H]2C/C=C\CCN(C2=O)[C@@H](Cc2ccc(C(F)F)cc2)C(=O)N(C)CC(=O)N[C@@H](CCc2ccc(C(F)(F)F)c(Cl)c2)C(=O)N2C[C@H](OC(C)C)C[C@H]2C(=O)N(C)C2(CCC2)C(=O)N(C)[C@@H](C(CC)CC)C(=O)N(C)[C@H](C(=O)N(C)C)CC(=O)N1C [PP3489] | 45 | A (a compound having 10 or more and less than 20 is denoted as A) | 1.3 | AA (a compound having 20 or more is denoted as AA) |
| C#CCN1CC(=O)N(C)[C@H]2C/C=C\CCN(C2=O)[C@@H](Cc2ccc(C(F)F)cc2)C(=O)N(C)CC(=O)N[C@@H](CCc2cc(F)c(C(F)(F)F)c(F)c2)C(=O)N2C[C@H](OC(C)C)C[C@H]2C(=O)N(C)C2(CCC2)C(=O)N(C)[C@@H](C(CC)CC)C(=O)N(C)[C@H](C(=O)N(C)C)CC(=O)N(C)[C@@H](COCCC)C(=O)N[C@@H]([C@@H](C)CC)C1=O [PP3490] | 23.7 | A (a compound having 10 or more and less than 20 is denoted as A) | 0.3 | A (a compound having 10 or more and less than 20 is denoted as A) |
| CCCOC[C@H]1C(=O)N[C@@H]([C@H](C)CC)C(=O)N(CCC)CC(=O)N(C)[C@H]2C/C=C\CCN(C2=O)[C@@H](Cc2ccc(C(F)F)cc2)C(=O)N(C)CC(=O)N[C@@H](CCc2cc(F)c(C(F)(F)F)c(F)c2)C(=O)N2C[C@H](OC(C)C)C[C@H]2C(=O)N(C)C2(CCC2)C(=O)N(C)[C@@H](C(CC)CC)C(=O)N(C)[C@H](C(=O)N(C)C)CC(=O)N1C [PP3492] | 89.4 | A (a compound having 10 or more and less than 20 is denoted as A) | 4.2 | A (a compound having 10 or more and less than 20 is denoted as A) |
| C=CCN1CC(=O)N(C)[C@H]2C/C=C\CCN(C2=O)[C@@H](Cc2ccc(C(F)F)cc2)C(=O)N(C)CC(=O)N[C@@H](CCc2ccc(C(F)(F)F)cc2Cl)C(=O)N2C[C@H](OC(C)C)C[C@H]2C(=O)N(C)C2(CCC2)C(=O)N(C)[C@@H](C(CC)CC)C(=O)N(C)[C@H](C(=O)N(C)C)CC(=O)N(C)[C@@H](CC2CC2)C(=O)N[C@@H]([C@@H](C)OCCC)C1=O [PP3493] | 32.1 | A (a compound having 10 or more and less than 20 is denoted as A) | 1 | AA (a compound having 20 or more is denoted as AA) |
| C#CCN1CC(=O)N(C)[C@H]2C/C=C\CCN(C2=O)[C@@H](Cc2ccc(C(F)F)cc2)C(=O)N(C)CC(=O)N[C@@H](CCc2ccc(C(F)(F)F)cc2Cl)C(=O)N2C[C@H](OC(C)C)C[C@H]2C(=O)N(C)C2(CCC2)C(=O)N(C)[C@@H](C(CC)CC)C(=O)N(C)[C@H](C(=O)N(C)C)CC(=O)N(C)[C@@H](CC(C)C)C(=O)N[C@@H]([C@@H](C)CC)C1=O [PP3495] | 37.9 | A (a compound having 10 or more and less than 20 is denoted as A) | 0.72 | AA (a compound having 20 or more is denoted as AA) |
| C#CCN1CC(=O)N(C)[C@H]2C/C=C\CCN(C2=O)[C@@H](Cc2ccc(C(F)F)cc2)C(=O)N(C)CC(=O)N[C@@H](CCc2cc(F)c(C(F)(F)F)c(F)c2)C(=O)N2C[C@H](OC(C)C)C[C@H]2C(=O)N(C)C2(CCC2)C(=O)N(C)[C@@H](C(CC)CC)C(=O)N(C)[C@H](C(=O)N(C)C)CC(=O)N(C)[C@@H](CC(F)(F)F)C(=O)N[C@@H](C(C)C)C1=O [PP3496] | 11.6 | A (a compound having 10 or more and less than 20 is denoted as A) | 0.43 | A (a compound having 10 or more and less than 20 is denoted as A) |
| CCCN1CC(=O)N(C)[C@H]2C/C=C\CCN(C2=O)[C@@H](Cc2ccc(C(F)F)cc2)C(=O)N(C)CC(=O)N[C@@H](CCc2cc(F)c(C(F)(F)F)c(F)c2)C(=O)N2C[C@H](OC(C)C)C[C@H]2C(=O)N(C)C2(CCC2)C(=O)N(C)[C@@H](C(CC)CC)C(=O)N(C)[C@H](C(=O)N(C)C)CC(=O)N(C)[C@@H](CC(F)F)C(=O)N[C@@H](C2CCCC2)C1=O [PP3497] | 21.2 | A (a compound having 10 or more and less than 20 is denoted as A) | 0.74 | A (a compound having 10 or more and less than 20 is denoted as A) |
| CCCN1CC(=O)N(C)[C@H]2C/C=C\CCN(C2=O)[C@@H](Cc2ccc(C(F)F)cc2)C(=O)N(C)CC(=O)N[C@@H](CCc2cc(F)c(C(F)(F)F)c(F)c2)C(=O)N2C[C@H](OC(C)C)C[C@H]2C(=O)N(C)C2(CCC2)C(=O)N(C)[C@@H](C(CC)CC)C(=O)N(C)[C@H](C(=O)N(C)C)CC(=O)N(C)[C@@H](COCC)C(=O)N[C@@H](C2CCCC2)C1=O [PP3498] | 24.7 | A (a compound having 10 or more and less than 20 is denoted as A) | 0.94 | A (a compound having 10 or more and less than 20 is denoted as A) |
